These results are taken from ChEMBL document CHEMBL4823305, “Design, synthesis and antibacterial evaluation of novel 3-O-substituted 15-membered azalides possessing 1,2,3-triazole side chains” (2021).

Test [1] concerns Staphylococcus aureus. The test can be described thus: Bactericidal activity against methicillin-resistant Staphylococcus aureus ATCC43300 at 2 times of MIC measured up to 24 hrs. It is filed as functional, organism-based. Conditions: time hrs <=24.
For test [2], the system named is Staphylococcus aureus. The test can be described thus: Antibacterial activity against methicillin-resistant Staphylococcus aureus ATCC43300 at 0.5 times of MIC measured up to 24 hrs by broth microdilution method. The note with it: time hrs <=24. It is filed as functional, organism-based. On the technique in general: Broth dilution looks for growth in wells or tubes with falling amounts of substance.

In the next test the test system is Klebsiella pneumoniae. Put plainly: Antibacterial activity against Klebsiella pneumoniae ATCC10031 by broth microdilution method. The class given is functional.
Test [3] is described as follows: Ratio of MBC for bactericidal activity against methicillin-resistant Staphylococcus aureus ATCC43300 to MIC for antibacterial activity against methicillin-resistant Staphylococcus aureus ATCC43300 by broth microdilution method. The class given is functional.
For test [4], the system named is Staphylococcus aureus. The test can be described thus: Antibacterial activity against methicillin-resistant Staphylococcus aureus ATCC43300 at 1 times of MIC measured up to 9 hrs by broth microdilution method. The class given is functional, organism-based. The note with it: time hrs <=9.
The next test concerns Enterococcus faecalis. Put plainly: Antibacterial activity against vancomycin-susceptible Enterococcus faecalis ATCC29212 by broth microdilution method. The class given is functional.
Test [5] concerns Staphylococcus aureus. The test can be described thus: Antibacterial activity against methicillin-resistant Staphylococcus aureus ATCC43300 by broth microdilution method. It is filed as functional.
Test [6] deals with Staphylococcus aureus. Put plainly: Antibacterial activity against erythromycin-susceptible Staphylococcus aureus ATCC25923 by broth microdilution method. It is filed as functional.
The test system of test [7] is Staphylococcus aureus. Put plainly: Antibacterial activity against penicillin-resistant Staphylococcus aureus by broth microdilution method. It is filed as functional.
Test [8] relates to Staphylococcus aureus. Put plainly: Bactericidal activity against methicillin-resistant Staphylococcus aureus ATCC43300 at 4 times of MIC measured up to 24 hrs. Conditions: time hrs <=24. The class given is functional, organism-based.
Test [9] relates to Staphylococcus aureus. The test can be described thus: Bactericidal activity against methicillin-resistant Staphylococcus aureus ATCC43300. It is filed as functional.
The subject of the next test is Enterococcus faecium. Put plainly: Antibacterial activity against clinical isolate erythromycin-resistant Enterococcus faecium by broth microdilution method. The class given is functional.
In another test the test system is Bacillus subtilis. Put plainly: Antibacterial activity against penicillin-susceptible Bacillus subtilis ATCC9372 by broth microdilution method. The class given is functional.

In brackets after ≈: the same amount, converted by molar mass. Activity calls are given as the source filed them. The calls are words filed in the database; no cut-off is given here. Some results are limits rather than exact numbers.

Broadly, the MIC is the lowest concentration found to suppress growth. In general, MBC refers to the lowest tested concentration that kills the bacteria rather than only halting them. Higher therefore signals less potent killing.

For `CCCCCc1ccc(-c2cn(CC(=O)NNC(=O)O[C@H]3[C@H](C)[C@@H](O[C@@H]4O[C@H](C)C[C@H](N(C)C)[C@H]4O)[C@](C)(O)C[C@@H](C)CN(C)[C@H](C)[C@H]4OC(=O)O[C@]4(C)[C@@H](CC)OC(=O)[C@@H]3C)nn2)cc1`, the inhibition result in the test with Staphylococcus aureus [1], in the test with Staphylococcus aureus [4] and with Staphylococcus aureus [8] was “Active” each time. Moreover, the inhibition result in the test on Staphylococcus aureus [2] is “inactive”. Also, the MIC with Klebsiella pneumoniae stood at 32 µg/mL (≈ 34.4 µM); in the test with Enterococcus faecalis, 4 µg/mL (≈ 4.3 µM); in the test on Staphylococcus aureus [5], 16 µg/mL (≈ 17.2 µM); against Staphylococcus aureus [6] it was 8 µg/mL (≈ 8.6 µM); with Staphylococcus aureus [7], 16 µg/mL (≈ 17.2 µM); with Enterococcus faecium it was 8 µg/mL (≈ 8.6 µM). The MIC in the test on Bacillus subtilis was found to be 8 µg/mL (≈ 8.6 µM). In addition, the Ratio in test [3] is reported as 8. Moreover, the minimum bactericidal concentration (MBC) against Staphylococcus aureus [9] worked out at 126 µg/mL (≈ 135 µM).

`CC[C@H]1OC(=O)[C@H](C)[C@@H](OC(=O)NNC(=O)Cn2cc(-c3ccc(C(C)(C)C)cc3)nn2)[C@H](C)[C@@H](O[C@@H]2O[C@H](C)C[C@H](N(C)C)[C@H]2O)[C@](C)(O)C[C@@H](C)CN(C)[C@H](C)[C@H]2OC(=O)O[C@@]21C`: the minimal inhibitory concentration (MIC) with Klebsiella pneumoniae turned out to be 16 µg/mL (≈ 17.5 µM); with Enterococcus faecalis, 4 µg/mL (≈ 4.37 µM); against Staphylococcus aureus [5], 32 µg/mL (≈ 34.9 µM); in the test with Staphylococcus aureus [6], 16 µg/mL (≈ 17.5 µM); against Staphylococcus aureus [7], 32 µg/mL (≈ 34.9 µM); with Enterococcus faecium it was 16 µg/mL (≈ 17.5 µM). In addition, in the test with Bacillus subtilis, inhibition of growth (MIC) required 16 µg/mL (≈ 17.5 µM). The Ratio in test [3] is recorded as over 8. The molecule further registered an MBC in the test with Staphylococcus aureus [9] of over 256 µg/mL.

As to `CCCCc1ccc(-c2cn(CC(=O)NNC(=O)O[C@H]3[C@H](C)[C@@H](O[C@@H]4O[C@H](C)C[C@H](N(C)C)[C@H]4O)[C@](C)(O)C[C@@H](C)CN(C)[C@H](C)[C@H]4OC(=O)O[C@]4(C)[C@@H](CC)OC(=O)[C@@H]3C)nn2)cc1`, the MIC against Klebsiella pneumoniae turned out to be 16 µg/mL (≈ 17.5 µM); against Enterococcus faecalis, 4 µg/mL (≈ 4.37 µM); in the test with Staphylococcus aureus [5] it was 32 µg/mL (≈ 34.9 µM); with Staphylococcus aureus [6] it was 8 µg/mL (≈ 8.73 µM); in the test on Staphylococcus aureus [7], 32 µg/mL (≈ 34.9 µM); against Enterococcus faecium, 16 µg/mL (≈ 17.5 µM). The MIC in the test on Bacillus subtilis amounted to 8 µg/mL (≈ 8.73 µM). Also, the Ratio in test [3] is on record as over 8. In the test on Staphylococcus aureus [9], this molecule showed an MBC of over 256 µg/mL.

For the molecule `CC[C@H]1OC(=O)[C@H](C)[C@@H](OC(=O)NNC(=O)Cn2cc(-c3ccc(-c4ccccc4)cc3)nn2)[C@H](C)[C@@H](O[C@@H]2O[C@H](C)C[C@H](N(C)C)[C@H]2O)[C@](C)(O)C[C@@H](C)CN(C)[C@H](C)[C@H]2OC(=O)O[C@@]21C`, the MIC worked out at 32 µg/mL (≈ 34.2 µM) in the test on Klebsiella pneumoniae; 8 µg/mL (≈ 8.55 µM) in the test on Enterococcus faecalis; 32 µg/mL (≈ 34.2 µM) in the test with Staphylococcus aureus [5]; 16 µg/mL (≈ 17.1 µM) with Staphylococcus aureus [6]; 32 µg/mL (≈ 34.2 µM) in the test with Staphylococcus aureus [7]; 16 µg/mL (≈ 17.1 µM) against Enterococcus faecium. In the test on Bacillus subtilis, this molecule gave an MIC of 16 µg/mL (≈ 17.1 µM). The Ratio in [3] is over 8. Also, in the test on Staphylococcus aureus [9], the minimal bactericidal concentration (MBC) is over 256 µg/mL.

In the case of `CC[C@H]1OC(=O)[C@H](C)[C@@H](OC(=O)NNC(=O)Cn2cc(-c3cccc(N)c3)nn2)[C@H](C)[C@@H](O[C@@H]2O[C@H](C)C[C@H](N(C)C)[C@H]2O)[C@](C)(O)C[C@@H](C)CN(C)[C@H](C)[C@H]2OC(=O)O[C@@]21C`, the MIC is 128 µg/mL (≈ 146 µM) against Klebsiella pneumoniae; over 128 µg/mL with Enterococcus faecalis; over 256 µg/mL in the test with Staphylococcus aureus [5]; 128 µg/mL (≈ 146 µM) in the test with Staphylococcus aureus [6]; over 256 µg/mL with Staphylococcus aureus [7]; 128 µg/mL (≈ 146 µM) against Enterococcus faecium. In addition, the minimal inhibitory concentration (MIC) against Bacillus subtilis was over 128 µg/mL.
